This is an account of results in US11084814B2, “Pyrido[3, 4-d]pyrimidine derivative and pharmaceutically acceptable salt thereof” (Teijin Pharma Limited, priority 2016, dated 2021).

pIC50: −log10 of the molar value.

The target of test [1] is T1, CDK4/cyclin D3 (Homo sapiens, UniProt P11802).
T1 construct: purchased Carna Biosciences, Inc. QS S Assist CDK4/Cyclin D3_FP Kit
The test is described as follows: Human CDK4/cyclin D3 inhibitory activity (QS S Assist CDK4/Cyclin D3_FP Kit, IMAP fluorescent polarization). Type of test: biochemical. The settings on record: read-out: CDK4 Activity symbol. The gist of the method: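 Kinase reactions used kit CDK4/cyclin D3 at 12.5–25 ng/well with the kit ATP/substrate/metal mix in 20 mM HEPES (pH 7.4), 0.01% Tween20 and 2 mM DTT, run 45 min at room temperature. Phosphorylation was detected by IMAP fluorescence polarization (ex 485/em 535 nm) after 30 min binding in the dark. IC50 was fitted from percent inhibition against DMSO controls with and without enzyme.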

For test [2], the target named is T2, CDK2/cyclin A2 (Homo sapiens, UniProt P24941).
T2 construct: purchased Carna Biosciences, Inc. QS S Assist CDK2/Cyclin A2_FP Kit
In words: Human CDK2/cyclin A2 inhibitory activity (QS S Assist CDK2/Cyclin A2_FP Kit, IMAP fluorescent polarization). The following applies: read-out: CDK2 Activity symbol. Type of test: biochemical. In a few lines: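 Kit CDK2/cyclin A2 (2.5 ng/well) was reacted with kit ATP/substrate/metal in 20 mM HEPES pH 7.4, 0.01% Tween 20 and 2 mM DTT for 60 min at room temperature. IMAP binding reagent was added for 30 min, then fluorescence polarization was read at 485/535 nm. IC50 came from dose-response fitting of percent inhibition.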

In test [3] the test system is neuronal death caused by local ischemia. The settings on record: rat cerebral infarction model; cited from earlier work.

T1 sequence (P11802 whole entry): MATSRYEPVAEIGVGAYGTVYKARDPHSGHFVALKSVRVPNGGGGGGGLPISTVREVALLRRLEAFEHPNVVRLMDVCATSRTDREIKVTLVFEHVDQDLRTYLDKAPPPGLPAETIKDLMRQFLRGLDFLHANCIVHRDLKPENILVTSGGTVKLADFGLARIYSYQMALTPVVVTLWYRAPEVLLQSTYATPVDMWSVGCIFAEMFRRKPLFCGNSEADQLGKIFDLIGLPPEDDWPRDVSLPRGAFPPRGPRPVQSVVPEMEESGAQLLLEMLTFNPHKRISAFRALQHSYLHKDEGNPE
T1 sequence (P30281 whole entry partner): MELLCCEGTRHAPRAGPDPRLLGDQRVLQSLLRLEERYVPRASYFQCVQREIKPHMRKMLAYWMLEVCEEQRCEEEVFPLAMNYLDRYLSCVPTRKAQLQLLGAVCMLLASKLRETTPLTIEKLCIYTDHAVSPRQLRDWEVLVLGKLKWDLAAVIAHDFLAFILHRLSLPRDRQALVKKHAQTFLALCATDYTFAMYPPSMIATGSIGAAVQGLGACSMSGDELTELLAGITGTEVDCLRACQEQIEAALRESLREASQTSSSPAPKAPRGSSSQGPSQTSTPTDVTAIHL

For the molecule `Cc1nc(Nc2ncc3cc([C@@H](C)O)nc(N4CCCCCC4)c3n2)ccc1N1CCCNCC1=O` [Compound 306], the pIC50 in test [1] was over 8.00; in test [2] it was 7.00 to 8.00.

With `C[C@@H](O)c1cc2cnc(Nc3ccc(N4CCCNCC4=O)cn3)nc2c(N2CCCCCC2)n1` [Compound 307], the figures for the pIC50 in test [1] and in test [2] were over 8.00 and 7.00 to 8.00, respectively.

As to `C[C@@H](O)c1cc2cnc(Nc3ccc(C(=O)N4CCN(CCO)CC4)cn3)nc2c(N2CCCCC2)n1` [Compound 308], the values for the pIC50 in test [1] and in test [2] were over 8.00 and at most 7.00, respectively.

As for `C[C@@H](O)c1cc2cnc(Nc3ccc(C(=O)N4CCN(C)CC4)cn3)nc2c(N2CCCCC2)n1` [Compound 309], the figures for the pIC50 in test [1] and in test [2] were over 8.00 and at most 7.00, respectively.

On to `C[C@@H](O)c1cc2cnc(Nc3ccc(C(=O)N4CCOCC4)cn3)nc2c(N2CCCCC2)n1` [Compound 310], for which the pIC50 in test [1] is over 8.00; in test [2], at most 7.00.

As to `C[C@@H](O)c1cc2cnc(Nc3ccc(C(=O)N4CCC(O)CC4)cn3)nc2c(N2CCCCC2)n1` [Compound 311], the values for the pIC50 in test [1] and in test [2] were over 8.00 and at most 7.00, respectively.

With `C[C@@H](O)c1cc2cnc(Nc3ccc(C(=O)N4CC[C@@H](N(C)C)C4)cn3)nc2c(N2CCCCC2)n1` [Compound 312], the pIC50 in test [1] is over 8.00; in test [2] it was at most 7.00.

With `C[C@@H](O)c1cc2cnc(Nc3ccc(C(=O)N4CC[C@H](N(C)C)C4)cn3)nc2c(N2CCCCC2)n1` [Compound 313], the values for the pIC50 in test [1] and in test [2] were over 8.00 and at most 7.00, respectively.

Consider `C[C@@H](O)c1cc2cnc(Nc3ccc(C(=O)N4CCS(=O)(=O)CC4)cn3)nc2c(N2CCCCC2)n1` [Compound 314], for which the pIC50 in test [1] was over 8.00; in test [2] it was at most 7.00.

On to `C[C@@H](O)c1cc2cnc(Nc3ccc(C(=O)N4CCC(N(C)C)CC4)cn3)nc2c(N2CCCCC2)n1` [Compound 315], for which the pIC50 in test [1] is over 8.00; in test [2], at most 7.00.

Take `C[C@@H](O)c1cc2cnc(Nc3ccc(C(=O)N(C)CCN(C)C)cn3)nc2c(N2CCCCC2)n1` [Compound 316]: the pIC50 is over 8.00 in test [1] and at most 7.00 in test [2].

Take `CCN1CCN(C(=O)c2ccc(Nc3ncc4cc([C@@H](C)O)nc(N5CCCCC5)c4n3)nc2)CC1` [Compound 317]: the pIC50 was over 8.00 in test [1] and at most 7.00 in test [2].

As for `C[C@@H](O)c1cc2cnc(Nc3ccc(C(=O)N4CCN(C)CC4)cn3)nc2c(N2CCCC2)n1` [Compound 318], the pIC50 in test [1] is over 8.00; in test [2], at most 7.00.

Regarding `C[C@@H](O)c1cc2cnc(Nc3ccc(C(=O)N4CCN(C)CC4)cn3)nc2c(N2CCCCCC2)n1` [Compound 319], the results for the pIC50 in test [1] and in test [2] were over 8.00 and 7.00 to 8.00, respectively.

As to `C[C@@H](O)c1cc2cnc(Nc3ccc(C(=O)N4CCN(C)CC4)cn3)nc2c(N2CCC(F)CC2)n1` [Compound 320], the pIC50 in test [1] was over 8.00; in test [2] it was at most 7.00.

`CC(O)c1cc2cnc(Nc3ccc(CN4CCN(C)CC4)cn3)nc2c(N2CC3CCC(C2)O3)n1` (centres unmarked) [Compound 321]: the pIC50 is over 8.00 in test [1] and at most 7.00 in test [2].

For `C[C@@H](O)c1cc2cnc(Nc3ccc(CN4CCN(C)CC4)cn3)nc2c(N2CCOCC2(C)C)n1` [Compound 322], the pIC50 in test [1] was over 8.00; in test [2] it was at most 7.00.

With `O=C1CNCCCN1c1ccc(Nc2ncc3cc(C4COC4)nc(N4CCCCC4)c3n2)nc1` [Compound 323], the pIC50 in test [1] was over 8.00; in test [2], at most 7.00.

As for `C[C@@H](O)c1cc2cnc(Nc3ccc(N4CC5(C4)CN(C4COC4)C5)nn3)nc2c(N2CCCCC2)n1` [Compound 324], the figures for the pIC50 in test [1] and in test [2] were over 8.00 and at most 7.00, respectively.

Consider `C[C@@H](O)c1cc2cnc(Nc3ccc(CN4CCC5(CC4)COC5)cn3)nc2c(N2CCCCC2)n1` [Compound 325], for which the pIC50 in test [1] is over 8.00; in test [2], at most 7.00.

In the case of `C[C@@H](O)c1cc2cnc(Nc3ccc(CN4CCC(C#N)CC4)cn3)nc2c(N2CCCCC2)n1` [Compound 326], the pIC50 in test [1] was over 8.00; in test [2], at most 7.00.

As to `Cc1nc(Nc2ncc3cc([C@@H](C)O)nc(N4CCCCC4)c3n2)ccc1N1CC2(C1)CN(C1COC1)C2` [Compound 327], the pIC50 in test [1] is over 8.00; in test [2], at most 7.00.

On to `Cc1nc(Nc2ncc3cc([C@@H](C)O)nc(N4CCCCC4)c3n2)ccc1N1CCN(C2CN(CCO)C2)CC1` [Compound 328], for which the results for the pIC50 in test [1] and in test [2] were over 8.00 and at most 7.00, respectively.

As for `CC(O)c1cc2cnc(Nc3ccc(N4CCCNCC4=O)cn3)nc2c(N2C3CCCC2CC3)n1` (centres unmarked) [Compound 329], the pIC50 was over 8.00 in test [1] and 7.00 to 8.00 in test [2].

As to `C[C@@H](O)c1cc2cnc(Nc3ccc4c(n3)CCN(C(=O)Cc3cccnc3)C4)nc2c(N2CCCCC2)n1` [Compound 330], the pIC50 was 7.00 to 8.00 in test [1] and at most 7.00 in test [2].

In the case of `C[C@@H](O)c1cc2cnc(Nc3ccc4c(n3)CCN(C(=O)Cn3cccn3)C4)nc2c(N2CCCCC2)n1` [Compound 331], the values for the pIC50 in test [1] and in test [2] were 7.00 to 8.00 and at most 7.00, respectively.

`C[C@@H](O)c1cc2cnc(Nc3ccc4c(n3)CCN(C(=O)Cn3cncn3)C4)nc2c(N2CCCCC2)n1` [Compound 332]: the pIC50 in test [1] is 7.00 to 8.00; in test [2], at most 7.00.

On to `C[C@@H](O)c1cc2cnc(Nc3ccc4c(n3)CCN(C(=O)Cn3cnnc3)C4)nc2c(N2CCCCC2)n1` [Compound 333], for which the results for the pIC50 in test [1] and in test [2] were over 8.00 and at most 7.00, respectively.

For `Cc1nc(Nc2ncc3cc([C@@H](C)O)nc(N4CCCCC4)c3n2)ccc1N1CCN(C2CN(C)C2)CC1` [Compound 334], the pIC50 in test [1] was over 8.00; in test [2] it was at most 7.00.

Take `C[C@@H](O)c1cc2cnc(Nc3ccc4c(n3)CCN(C(=O)Cc3ccccn3)C4)nc2c(N2CCCCC2)n1` [Compound 335]: the figures for the pIC50 in test [1] and in test [2] were 7.00 to 8.00 and at most 7.00, respectively.

Take `C[C@@H](O)c1cc2cnc(Nc3ccc4c(n3)CCN(C(=O)Cn3ccnn3)C4)nc2c(N2CCCCC2)n1` [Compound 336]: the pIC50 was 7.00 to 8.00 in test [1] and at most 7.00 in test [2].

Regarding `C[C@@H](O)c1cc2cnc(Nc3ccc4c(n3)CCN(C(=O)Cn3nccn3)C4)nc2c(N2CCCCC2)n1` [Compound 337], the pIC50 was 7.00 to 8.00 in test [1] and at most 7.00 in test [2].

Take `CN1CC[C@H](c2c(O)cc(O)c3c(=O)cc(-c4ccccc4Cl)oc23)[C@H](O)C1` [flavopiridol]: the neuronal death result in test [3] is on record as “reduced”.
